Assay results from patent US20240108740A1, “THERAPEUTIC COMPOSITIONS INCLUDING SPN10 AND USES THEREOF” (Stealth BioTherapeutics Inc., priority 2022, published 2024).
Residues, ends and D or L forms follow the SMILES beside them.

Tests used:
mice treated with Mtox = assay: Example 31: Mtox model of Parkinson's Disease; format: in vivo, mouse; settings: Mtox 10 mg/kg, three doses
Experimental: Three doses of Mtox (10 mg/kg) will be given to mice (n=12) 2 hours apart. Peptide conjugates, aromatic-cationic peptides, or SPN10(s) with or without aromatic-cationic peptides will be administered 30 minutes before each Mtox injection, and at 1 and 12 hours after the last Mtox injection. Animals will be sacrificed one week later and striatal brain regions will be immunostained for tyrosine hydroxylase activity. Levels of dopamine, DOPAC and HVA levels will be quantified by high pressure liquid chromatography.

Sprague-Dawley rats = assay: Example 42: CCl4-induced chronic nephrotoxicity; format: in vivo, rat
From the text: […]
Renal Histology: Kidneys will be fixed in 10% neutral-buffered formalin and embedded in paraffin wax for sectioning. Three-micron sections will be stained with hematoxylin-eosin (H&E) and analyzed by light microscopy by a certified pathologist.

CD1 mice = assay: Example 52: ATP synthesis following a burn injury (^31P NMR, EPR); format: in vivo, mouse
Experimental: Material and Methods. Male 6-week-old CD1 mice weighing 20-25 g will be anesthetized by intraperitoneal (i.p.) injection of 40 mg/kg pentobarbital sodium. The left hind limb of all mice in all groups will be shaved. Burn subjects will be subjected to a nonlethal scald injury of 3-5% total body surface area (TBSA) by immersing the left hind limb in 90° C. water for 3 seconds.
NMR spectroscopy is described in detail in Padfield, et al., Proc. Natl. Acad. Sci., 102:5368-5373 (2005). Briefly, mice will be randomized into 1) burn+control vehicle, 2) burn+peptide conjugate, 3) non-burn+control vehicle, 4) non-burn+peptide conjugate, 5) burn+aromatic-cationic peptides, 6) non-burn+aromatic-cationic peptides, 7) burn+SPN10, 8) non-burn+SPN10, 9) burn+SPN10+aromatic-cationic peptides, and 10) non-burn+SPN10+aromatic-cationic peptides groups. […] T1 relaxation times of Pi and phosphocreatine (PCr) will be measured using an inversion recovery pulse sequence in the presence of γ-ATP saturation. […]

N=C(N)NCCC[C@H](NC(=O)[C@@H](N)Cc1c[nH]c2ccccc12)C(=O)N[C@@H](Cc1c[nH]c2ccccc12)C(=O)N[C@@H](CCCCN)C(N)=O [SPN10, H-L-Trp-L-Arg-L-Trp-L-Lys-NH2] (H-WRWK-NH2)
loss of dopaminergic neurons (mice treated with Mtox): dose-dependently prevent the loss of dopaminergic neurons | striatal dopamine, DOPAC, and HVA levels (mice treated with Mtox): dose-dependently increase striatal dopamine, DOPAC, and HVA levels | histopathological changes (H&E) compared to untreated control animals of Group (1) (Sprague-Dawley rats; rat, in vivo): no significant histopathological changes | protection of renal tubules from CCl4 nephrotoxicity (Sprague-Dawley rats; s.c. 5 days per week, 7 weeks): protect renal tubules from CCl4 nephrotoxicity | ATP synthesis rate in burned mice (CD1 mice; compared to burn controls): significant increase in the ATP synthesis rate | ATP synthesis rate in control healthy mice (CD1 mice; non-burn): increase ATP synthesis rate substantially
